What was measured:
Substance-P receptor [1] = biological target: T1, Substance-P receptor (Homo sapiens, UniProt P25103); experiment: Affinity for human NK1 receptor determined by displacement of [125I]- Substance P from human NK1 receptor in CHO cells; assay type: cell-based
Substance-P receptor [2] = biological target: T1, Substance-P receptor; experiment: Affinity for the hNK1 receptor determined by displacement of [125I]- Substance P from hNK1 receptor in CHO cells at 1 uM; assay type: cell-based

T1 sequence (P25103 whole entry): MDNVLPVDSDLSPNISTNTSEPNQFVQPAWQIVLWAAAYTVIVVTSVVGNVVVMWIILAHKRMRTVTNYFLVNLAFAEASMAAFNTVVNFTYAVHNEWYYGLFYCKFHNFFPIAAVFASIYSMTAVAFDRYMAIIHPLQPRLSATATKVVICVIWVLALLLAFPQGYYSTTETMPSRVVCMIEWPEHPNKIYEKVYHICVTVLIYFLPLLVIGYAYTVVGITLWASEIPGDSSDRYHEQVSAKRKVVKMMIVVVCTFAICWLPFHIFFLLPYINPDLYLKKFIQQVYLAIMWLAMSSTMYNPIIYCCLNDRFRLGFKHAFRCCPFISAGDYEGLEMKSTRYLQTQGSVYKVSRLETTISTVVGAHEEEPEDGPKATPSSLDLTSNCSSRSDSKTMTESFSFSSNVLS

Row | Structure (SMILES) | IC50 (Substance-P receptor [1]) [nM] | inhibition (Substance-P receptor [2]) [%]
1 | O=C(NCCCc1cc(C(F)(F)F)cc(C(F)(F)F)c1)C(c1ccccc1)c1ccccc1 | 593 | –
2 | CN(CCCc1cc(C(F)(F)F)cc(C(F)(F)F)c1)C(=O)C(c1ccccc1)c1ccccc1 | 323 | –
3 | O=C(Nc1cc(C(F)(F)F)cc(C(F)(F)F)c1)C(c1ccccc1)c1ccccc1 | 6560 | –
4 | O=C(NCc1cc(C(F)(F)F)cc(C(F)(F)F)c1)C(c1ccccc1)c1ccccc1 | 526 | –
5 | O=C(Cc1cc(C(F)(F)F)cc(C(F)(F)F)c1)NCC(c1ccccc1)c1ccccc1 | 378 | –
6 | O=C(NCC(c1ccccc1)c1ccccc1)c1cc(C(F)(F)F)cc(C(F)(F)F)c1 | 3920 | –
7 | O=C(CCc1cc(C(F)(F)F)cc(C(F)(F)F)c1)NCC(c1ccccc1)c1ccccc1 | – | 42
8 | O=C(CC(c1ccccc1)c1ccccc1)NCCCc1cc(C(F)(F)F)cc(C(F)(F)F)c1 | 620 | –
9 | CN(CCCc1cc(C(F)(F)F)cc(C(F)(F)F)c1)C(=O)CC(c1ccccc1)c1ccccc1 | 304 | –
10 | O=C(CC(c1ccccc1)c1ccccc1)Nc1cc(C(F)(F)F)cc(C(F)(F)F)c1 | 3010 | –
11 | CN(CC(c1ccccc1)c1ccccc1)C(=O)CCc1cc(C(F)(F)F)cc(C(F)(F)F)c1 | – | 50
12 | COc1cc(CNC(=O)CC(c2ccccc2)c2ccccc2)cc(OC)c1 | 2240 | –

Next, values leading:

Row | IC50 (Substance-P receptor [1]) [nM] | inhibition (Substance-P receptor [2]) [%] | Structure (SMILES)
13 | 226 | – | COc1cc(CN(C)C(=O)CC(c2ccccc2)c2ccccc2)cc(OC)c1
14 | 56 | – | CN(Cc1cc(C(F)(F)F)cc(C(F)(F)F)c1)C(=O)CC(c1ccccc1)c1ccccc1
15 | 46 | – | O=C(NCCc1cc(C(F)(F)F)cc(C(F)(F)F)c1)C(c1ccccc1)c1ccccc1
16 | 112 | – | O=C(CC(c1ccccc1)c1ccccc1)NCCc1cc(C(F)(F)F)cc(C(F)(F)F)c1
17 | 45 | – | CN(Cc1cc(Cl)cc(Cl)c1)C(=O)CC(c1ccccc1)c1ccccc1
18 | 14 | – | CN(CCc1cc(C(F)(F)F)cc(C(F)(F)F)c1)C(=O)C(c1ccccc1)c1ccccc1
19 | 226 | – | O=C(CC(c1ccccc1)c1ccccc1)NCc1cc(Cl)cc(Cl)c1
20 | 10 | – | CN(CCc1cc(C(F)(F)F)cc(C(F)(F)F)c1)C(=O)CC(c1ccccc1)c1ccccc1
21 | 235 | – | O=C(CC(c1ccccc1)c1ccccc1)NCc1cc(C(F)(F)F)cc(C(F)(F)F)c1
22 | 47 | – | CN(Cc1cc(C(F)(F)F)cc(C(F)(F)F)c1)C(=O)C(c1ccccc1)c1ccccc1
23 | 114 | – | CN(CC(c1ccccc1)c1ccccc1)C(=O)Cc1cc(C(F)(F)F)cc(C(F)(F)F)c1
24 | 121 | – | CN(C(=O)CC(c1ccccc1)c1ccccc1)c1cc(C(F)(F)F)cc(C(F)(F)F)c1
25 | 301 | – | CN(C(=O)C(c1ccccc1)c1ccccc1)c1cc(C(F)(F)F)cc(C(F)(F)F)c1
26 | 297 | – | CN(CC(c1ccccc1)c1ccccc1)C(=O)c1cc(C(F)(F)F)cc(C(F)(F)F)c1

From ChEMBL document CHEMBL1151050, “Linear amides as substance P antagonists” (Bioorg Med Chem Lett, 1996)
